Data as given in PubChem BioAssay AID248 (DTP/NCI, 2004).
Toxic doses and inconclusive results are not listed. Rule as the data show it: active = T/C of 150% or more; inactive = T/C below 125%.

System: L1210 leukemia ip in BDF1 mice, survival T/C
Experiment: NCI In Vivo Anticancer Drug Screen. Data for tumor model L1210 Leukemia (intraperitoneal) in B6D2F1 (BDF1) mice
Conditions: endpoint: mean survival time, higher = longer survival
Summary of the method: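 Tumor cells were implanted, animals were treated, and survival was followed. The result divides the treated measurement by the vehicle-control measurement.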

[1] = dose: 100.0 mg/kg/injection, schedule: Q01DX001 (ip), vehicle: saline
[2] = dose: 200.0 mg/kg/injection, schedule: Q01DX001 (ip), vehicle: saline
[3] = dose: 400.0 mg/kg/injection, schedule: Q01DX001 (ip), vehicle: saline

Measured: T/C

CCCC(=O)Nc1ccc(N)cc1OC
inactive: dose: 5.0 mg/kg/injection, schedule: Q01DX009 (ip), vehicle: saline 100 % of control | dose: 5.0 mg/kg/injection, schedule: Q04DX003 (ip), vehicle: Klucel (hydroxypropylcellulose) (HPC) 96 % of control | dose: 10.0 mg/kg/injection, schedule: Q01DX009 (ip), vehicle: saline 100 % of control | dose: 10.0 mg/kg/injection, schedule: Q04DX003 (ip), vehicle: Klucel (hydroxypropylcellulose) (HPC) 102 % of control | dose: 20.0 mg/kg/injection, schedule: Q01DX009 (ip), vehicle: saline 100 % of control | dose: 20.0 mg/kg/injection, schedule: Q04DX003 (ip), vehicle: Klucel (hydroxypropylcellulose) (HPC) 96 % of control

O=C(O)CC1CCN(C(=O)c2ccccc2)C(Cc2c[nH]c3ccccc23)C1O (centres undefined)
inactive: [1] 97 % of control | [2] 101 % of control | [3] 92 % of control

CCSC1OC(CO)C(O)C1Nc1ccc([N+](=O)[O-])cc1[N+](=O)[O-] (centres undefined)
inactive: dose: 50.0 mg/kg/injection, schedule: Q01DX001 (ip), vehicle: carboxymethylcellulose (CMC) 89 % of control | dose: 100.0 mg/kg/injection, schedule: Q01DX001 (ip), vehicle: carboxymethylcellulose (CMC) 94 % of control

COc1ccc(C2OCC(CCl)O2)cc1 (centres undefined)
inactive: dose: 55.0 mg/kg/injection, schedule: Q01DX Z (ip), vehicle: methylcellulose (MC) 109 % of control | dose: 83.0 mg/kg/injection, schedule: Q01DX Z (ip), vehicle: methylcellulose (MC) 103 % of control | dose: 125.0 mg/kg/injection, schedule: Q01DX Z (ip), vehicle: methylcellulose (MC) 101 % of control

Cc1cc(Cl)ccc1OCC(=O)NCC(C)O (centres undefined)
inactive: dose: 100.0 mg/kg/injection, schedule: Q04DX002 (ip), vehicle: Klucel (hydroxypropylcellulose) (HPC) 100 % of control | dose: 200.0 mg/kg/injection, schedule: Q04DX002 (ip), vehicle: Klucel (hydroxypropylcellulose) (HPC) 98 % of control | dose: 400.0 mg/kg/injection, schedule: Q04DX002 (ip), vehicle: Klucel (hydroxypropylcellulose) (HPC) 98 % of control

CCCCCCCCNc1cc2c3c(c1)CCCN3CCC2
inactive: dose: 0.78 mg/kg/injection, schedule: Q01DX009 (ip), vehicle: alcohol 110 % of control | dose: 1.56 mg/kg/injection, schedule: Q01DX009 (ip), vehicle: alcohol 102 % of control | dose: 1.56 mg/kg/injection, schedule: Q04DX003 (ip), vehicle: alcohol 102 % of control | dose: 3.12 mg/kg/injection, schedule: Q01DX009 (ip), vehicle: alcohol 113 % of control | dose: 3.12 mg/kg/injection, schedule: Q04DX003 (ip), vehicle: alcohol 108 % of control | dose: 6.25 mg/kg/injection, schedule: Q04DX003 (ip), vehicle: alcohol 97 % of control | dose: 25.0 mg/kg/injection, schedule: Q04DX003 (ip), vehicle: alcohol 88 % of control

CN(C)CCCN1c2ccccc2Sc2c(Cl)cc(Cl)cc21
inactive: dose: 6.25 mg/kg/injection, schedule: Q01DX009 (ip), vehicle: saline 97 % of control | dose: 12.5 mg/kg/injection, schedule: Q01DX009 (ip), vehicle: saline 103 % of control | dose: 25.0 mg/kg/injection, schedule: Q01DX009 (ip), vehicle: saline 101 % of control | dose: 25.0 mg/kg/injection, schedule: Q04DX003 (ip), vehicle: saline 94 % of control | dose: 50.0 mg/kg/injection, schedule: Q01DX009 (ip), vehicle: saline 104 % of control | dose: 50.0 mg/kg/injection, schedule: Q04DX003 (ip), vehicle: saline 113 % of control | dose: 100.0 mg/kg/injection, schedule: Q04DX003 (ip), vehicle: saline 118 % of control

c1cc2c3c(c1)ncn3CCC2
inactive: dose: 50.0 mg/kg/injection, schedule: Q01DX009 (ip), vehicle: other 119 % of control | dose: 100.0 mg/kg/injection, schedule: Q01DX009 (ip), vehicle: other 104 % of control | dose: 100.0 mg/kg/injection, schedule: Q04DX003 (ip), vehicle: saline with Tween-80 102 % of control | dose: 200.0 mg/kg/injection, schedule: Q01DX009 (ip), vehicle: other 117 % of control | dose: 200.0 mg/kg/injection, schedule: Q04DX003 (ip), vehicle: saline with Tween-80 100 % of control

O=C1Nc2cccc3cc(NCC(O)CCCl)cc1c23 (centres undefined)
inactive: [1] 90 % of control | [2] 89 % of control | [3] 100 % of control
